# pIC50: −log10 of the molar value. The source made the active and inactive calls. The rule behind the calls is not given here.
# How the values were obtained:
# HeLa = test: cells; conditions: Homo sapiens, 72 h
# Description: Antiproliferative activity against human HeLa cells assessed as inhibition of cell proliferation incubated for 72 hrs by MTT assay
# HL-60 = test: Antiproliferative activity against human HL60 cells assessed as inhibition of cell proliferation incubated for 72 hrs by MTT assay; type: functional, cell-based; conditions: HL-60, 72 h
# SEM cells = test: Antiproliferative activity against human SEM cells assessed as inhibition of cell proliferation incubated for 72 hrs by MTT assay; type: functional, cell-based
# HT-29 = test: cells; conditions: Homo sapiens, HT-29, 72 h
# Description: Antiproliferative activity against human HT-29 cells assessed as inhibition of cell proliferation incubated for 72 hrs by MTT assay
# MCF7 = test: cells; conditions: Homo sapiens, MCF7, 72 h
# Description: Antiproliferative activity against human MCF7 cells assessed as inhibition of cell proliferation incubated for 72 hrs by MTT assay
# Tubulin = Tubulin (Bos taurus, UniProt Q6B856+Q862L2+Q862F3); test: Inhibition of bovine brain tubulin assembly using GTP as substrate incubated for 20 mins by spectrophotometric method
# Tubulin (Bos taurus) [1] = biological target: T1, Tubulin (Bos taurus) (UniProt Q6B856+Q862L2+Q862F3); test: Displacement of [3H]-colchicine from bovine brain tubulin at 5 uM incubated for 1 hr by relative to control
# MDA-MB-231 [2] = test: Antiproliferative activity against human MDA-MB-231 cells assessed as inhibition of cell proliferation incubated for 72 hrs by MTT assay; type: functional, cell-based; conditions: MDA-MB-231, 72 h
# Tubulin (Bos taurus) [3] = biological target: T1, Tubulin (Bos taurus); test: Displacement of [3H]-colchicine from bovine brain tubulin at 0.5 uM incubated for 1 hr by relative to control
# MDA-MB-231 [4] = test: Induction of apoptosis in human MDA-MB-231 cells at 50 nM incubated for 24 to 48 hrs by annexin V-FITC/propidium iodide staining-based flow cytometry analysis; type: functional, cell-based
# MDA-MB-231 [5] = test: Induction of apoptosis in human MDA-MB-231 cells assessed as reduction in XIAP protein expression at 50 to 100 nM incubated for 24 to 48 hrs by Western blot analysis; type: functional, cell-based
# MDA-MB-231 [6] = test: Induction of apoptosis in human MDA-MB-231 cells assessed as reduction in Mcl1 protein expression at 50 to 100 nM incubated for 48 hrs by Western blot analysis; type: functional, cell-based
# MDA-MB-231 [7] = test: Induction of cell cycle arrest in human MDA-MB-231 cells assessed as increase in p21 protein expression level at 50 to 100 nM incubated for 24 to 48 hrs by western blot analysis; type: functional, cell-based
# CCRF-CEM = test: Antiproliferative activity against human CEM cells assessed as inhibition of cell growth incubated for 72 hrs by MTT assay; type: functional
# MDA-MB-231 [8] = test: Induction of cell cycle arrest in human MDA-MB-231 cells assessed as reduction in accumulation of cells at S phase at 10 to 100 nM incubated for 24 hrs by PI staining based flow cytometric analysis; type: functional
# [9] = Cytotoxicity against PHA-stimulated human PBL assessed as reduction in cell viability incubated for 72 hrs by MTT assay; type: cell-based
# [10] = Cytotoxicity against human quiescent PBL assessed as reduction in cell viability incubated for 72 hrs by MTT assay; type: cell-based
# MDA-MB-231 [11] = test: Induction of cell cycle arrest in human MDA-MB-231 cells assessed as reduction in accumulation of cells at G1 phase at 10 to 100 nM incubated for 24 hrs by PI staining based flow cytometric analysis; type: functional
# MDA-MB-231 [12] = test: Induction of cell cycle arrest in human MDA-MB-231 cells assessed as increase in accumulation of cells at G2/M phase at 100 nM incubated for 24 hrs by PI staining based flow cytometric analysis; type: functional
# MDA-MB-231 [13] = test: Induction of mitochondrial membrane depolarization in human MDA-MB-231 cells at 50 to 100 nM incubated for 24 to 48 hrs by JC1 staining based flow cytometric method; type: functional, cell-based
# MDA-MB-231 [14] = test: Induction of apoptosis in human MDA-MB-231 cells assessed as activation of PARP cleavage at 50 to 100 nM incubated for 48 hrs by Western blot analysis; type: functional, cell-based
# MDA-MB-231 [15] = test: Induction of ROS generation in human MDA-MB-231 cells at 50 to 100 nM incubated for 24 to 48 hrs by H2-DCFDA staining based flow cytometric method; type: functional, cell-based
# [16] = Antiproliferative activity against human CEM/VBL100 cells overexpressing P-gp assessed as inhibition of cell growth incubated for 72 hrs by MTT assay; type: functional; conditions: CEM/VBL100, 72 h
# MDA-MB-231 [17] = test: Induction of cell cycle arrest in human MDA-MB-231 cells assessed as effect on cyclin B protein expression at 50 to 100 nM incubated for 24 to 48 hrs by western blot analysis; type: functional, cell-based
# [18] = Cytotoxicity against human astrocytes assessed as reduction in cell viability incubated for 72 hrs by MTT assay; type: cell-based, Astrocyte
# E0771 [19] = test: Antitumour activity against mouse E0771 cells allografted in C57BL/6 mouse assessed as reduction in tumor mass at 30 mg/kg, ip administrated every other day by caliper method; type: functional, organism-based
# MDA-MB-231 [20] = test: Induction of apoptosis in human MDA-MB-231 cells assessed as reduction in Mcl1 protein expression at 50 nM incubated for 24 hrs by Western blot analysis; type: functional, cell-based
# MDA-MB-231 [21] = test: Induction of cell cycle arrest in human MDA-MB-231 cells assessed as increase in accumulation of cells at G2/M phase at 10 nM incubated for 24 hrs by PI staining based flow cytometric analysis relative to control; type: functional
# MDA-MB-231 [22] = test: Induction of cell cycle arrest in human MDA-MB-231 cells assessed as reduction in cdc25c protein expression at 50 nM incubated for 24 to 48 hrs by western blot analysis; type: functional, cell-based
# [23] = Toxicity in C57BL/6 mouse allografted with mouse E0771 cells assessed as change in body weight at 15 mg/kg, ip administered every other day; type: organism-based; conditions: in vivo
# MDA-MB-231 [24] = test: Inhibition of cell migration in human MDA-MB-231 cells at 5 nM incubated for 24 to 48 hrs by wound healing assay; type: functional, cell-based
# E0771 [25] = test: Antitumour activity against mouse E0771 cells allografted in C57BL/6 mouse assessed as reduction in tumor burden at 5.0 mg/kg, ip administrated every other day by caliper method; type: functional, organism-based
# E0771 [26] = test: Antitumour activity against mouse E0771 cells allografted in C57BL/6 mouse assessed as reduction in tumor mass at 5.0 to 15 mg/kg, ip administrated for every other day by caliper method; type: functional, organism-based
# E0771 [27] = test: Antitumour activity against mouse E0771 cells allografted in ip dosed C57BL/6 mouse assessed as reduction in tumor burden administrated every other day by caliper method; type: functional, organism-based
# MDA-MB-231 [28] = test: Induction of cell cycle arrest in human MDA-MB-231 cells assessed as reduction in cdc2 dephosphorylation level at 50 to 100 nM incubated for 24 to 48 hrs by western blot analysis
compound,measurement,setting,value
COc1cc(-c2n[nH]cc2-c2ccc3ccccc3c2)cc(OC)c1OC,pIC50,HeLa,8.18
same,pIC50,HL-60,8.03
same,pIC50,SEM cells,8.48
same,pIC50,HT-29,8.09
same,pIC50,MCF7,7.67
same,IC50,Tubulin,410 nM
same,inhibition,Tubulin (Bos taurus) [1],91%
same,pIC50,MDA-MB-231 [2],7.55
same,inhibition,Tubulin (Bos taurus) [3],68%
CCOc1ccc(-c2c[nH]nc2-c2cc(OC)c(OC)c(OC)c2)cc1,pIC50,HeLa,10.30
same,Activity,MDA-MB-231 [4],Active
same,pIC50,HL-60,8.49
same,Activity,MDA-MB-231 [5],Active
same,Activity,MDA-MB-231 [6],Active
same,Activity,MDA-MB-231 [7],Active
same,GI50,CCRF-CEM,0.4 nM
same,Activity,MDA-MB-231 [8],Active
same,GI50 at 72 h,[9],> 10000 nM
same,GI50 at 72 h,[10],8700 nM
same,Activity,MDA-MB-231 [11],Active
same,pIC50,SEM cells,9.70
same,pIC50,HT-29,9.52
same,Activity,MDA-MB-231 [12],Active
same,Activity,MDA-MB-231 [13],Active
same,Activity,MDA-MB-231 [14],Active
same,pIC50,MCF7,8.82
same,IC50,Tubulin,360 nM
same,Activity,MDA-MB-231 [15],Active
same,GI50,[16],1.9 nM
same,inhibition,Tubulin (Bos taurus) [1],95%
same,pIC50,MDA-MB-231 [2],8.35
same,inhibition,Tubulin (Bos taurus) [3],69%
same,Activity,MDA-MB-231 [17],inactive
same,GI50 at 72 h,[18],> 10000 nM
COc1cc(-c2n[nH]cc2-c2ccc(SC)cc2)cc(OC)c1OC,pIC50,HeLa,7.54
same,pIC50,HL-60,7.39
same,pIC50,SEM cells,7.52
same,pIC50,HT-29,7.29
same,pIC50,MCF7,< 5.00
same,IC50,Tubulin,570 nM
same,inhibition,Tubulin (Bos taurus) [1],85%
same,pIC50,MDA-MB-231 [2],5.44
COc1cc(-c2n[nH]cc2-c2ccc(C)c(F)c2)cc(OC)c1OC,pIC50,HeLa,7.58
same,pIC50,HL-60,7.51
same,pIC50,SEM cells,7.63
same,pIC50,HT-29,7.17
same,pIC50,MCF7,5.77
same,IC50,Tubulin,480 nM
same,inhibition,Tubulin (Bos taurus) [1],91%
same,pIC50,MDA-MB-231 [2],6.32
same,inhibition,Tubulin (Bos taurus) [3],49%
COc1cc(-c2c[nH]nc2-c2ccc(C)cc2)cc(OC)c1OC,pIC50,HeLa,7.60
same,pIC50,HL-60,7.50
same,pIC50,SEM cells,7.83
same,pIC50,HT-29,7.35
same,pIC50,MCF7,6.15
same,IC50,Tubulin,570 nM
same,inhibition,Tubulin (Bos taurus) [1],86%
same,pIC50,MDA-MB-231 [2],6.58
COc1cc(-c2n[nH]cc2-c2cc3ccccc3s2)cc(OC)c1OC,pIC50,HeLa,8.77
same,pIC50,HL-60,8.64
same,pIC50,SEM cells,9.30
same,pIC50,HT-29,8.13
same,pIC50,MCF7,8.85
same,IC50,Tubulin,300 nM
same,inhibition,Tubulin (Bos taurus) [1],93%
same,pIC50,MDA-MB-231 [2],8.60
same,inhibition,Tubulin (Bos taurus) [3],69%
COc1cc(-c2n[nH]cc2-c2ccc(C)c(C)c2)cc(OC)c1OC,pIC50,HeLa,7.44
same,pIC50,HL-60,7.29
same,pIC50,SEM cells,7.55
same,pIC50,HT-29,7.16
same,pIC50,MCF7,6.11
same,IC50,Tubulin,610 nM
same,inhibition,Tubulin (Bos taurus) [1],85%
same,pIC50,MDA-MB-231 [2],5.58
COc1ccc(-c2c[nH]nc2-c2cc(OC)c(OC)c(OC)c2)cc1F,pIC50,HeLa,8.14
same,pIC50,HL-60,8.29
same,pIC50,SEM cells,8.57
same,pIC50,HT-29,7.80
same,pIC50,MCF7,6.09
same,IC50,Tubulin,420 nM
same,inhibition,Tubulin (Bos taurus) [1],93%
same,pIC50,MDA-MB-231 [2],6.49
same,inhibition,Tubulin (Bos taurus) [3],55%
COc1ccc(-c2n[nH]cc2-c2cc(OC)c(OC)c(OC)c2)cc1,pIC50,HeLa,8.72
same,pIC50,HL-60,8.68
same,pIC50,SEM cells,9.40
same,pIC50,HT-29,9.10
same,pIC50,MCF7,8.59
same,IC50,Tubulin,340 nM
same,inhibition,Tubulin (Bos taurus) [1],93%
same,pIC50,MDA-MB-231 [2],9.05
same,inhibition,Tubulin (Bos taurus) [3],79%
CCOc1ccc(-c2c[nH]nc2-c2cc(OC)c(OC)c(OC)c2)cc1Cl,pIC50,HeLa,8.80
same,pIC50,HL-60,8.82
same,pIC50,SEM cells,8.85
same,pIC50,HT-29,8.38
same,pIC50,MCF7,8.35
same,IC50,Tubulin,390 nM
same,inhibition,Tubulin (Bos taurus) [1],90%
same,pIC50,MDA-MB-231 [2],8.16
same,inhibition,Tubulin (Bos taurus) [3],62%
COc1ccc(/C=C\c2cc(OC)c(OC)c(OC)c2)cc1OP(=O)(O)O,inhibition,E0771 [19],Active
CCOc1ccc(-c2n[nH]cc2-c2cc(OC)c(OC)c(OC)c2)cc1,pIC50,HeLa,10.15
same,Activity,MDA-MB-231 [4],Active
same,Activity,MDA-MB-231 [20],Active
same,Activity,MDA-MB-231 [21],60%
same,pIC50,HL-60,9.60
same,Activity,MDA-MB-231 [5],Active
same,Activity,MDA-MB-231 [7],Active
same,Activity,MDA-MB-231 [22],Active
same,GI50,CCRF-CEM,0.35 nM
same,Activity,[23],Non-Toxic
same,Activity,MDA-MB-231 [8],Active
same,GI50 at 72 h,[9],> 10000 nM
same,GI50 at 72 h,[10],> 10000 nM
same,Activity,MDA-MB-231 [11],Active
same,pIC50,SEM cells,10.22
same,inhibition,MDA-MB-231 [24],Active
same,pIC50,HT-29,10.22
same,inhibition,E0771 [25],Active
same,Activity,MDA-MB-231 [13],Active
same,Activity,MDA-MB-231 [14],Active
same,inhibition,E0771 [26],Active
same,inhibition,E0771 [27],Dose-dependent effect
same,pIC50,MCF7,9.68
same,IC50,Tubulin,350 nM
same,Activity,MDA-MB-231 [15],Active
same,GI50,[16],0.52 nM
same,inhibition,Tubulin (Bos taurus) [1],96%
same,pIC50,MDA-MB-231 [2],9.15
same,Activity,MDA-MB-231 [28],Active
same,inhibition,Tubulin (Bos taurus) [3],90%
same,Activity,MDA-MB-231 [17],inactive
same,GI50 at 72 h,[18],> 10000 nM
